The values that follow come from ChEMBL document CHEMBL5370662, “Reactive Oxygen Species-Activated Metal-Free Carbon Monoxide Prodrugs for Targeted Cancer Treatment” (J Med Chem, 2023).

The nature of data set [1]: Prodrug conversion in PBS buffer assessed as carbon monoxide release by measuring half life at pH 7.4 at 25 uM in presence of H2O2 by HPLC analysis. Type of data set: ADME. The following applies: pH 7.4, 25 µM.
A short description of data set [2]: Prodrug conversion in PBS buffer assessed as carbon monoxide release by measuring half life at pH 7.4 at 25 uM by HPLC analysis. The class given is ADME. As to conditions: pH 7.4, 25 µM.
Data set [3] can be described thus: Prodrug conversion in 1-Ac probed mouse 4T1 cells assessed as carbon monoxide release by measuring red fluorescence at 20 uM incubated for 6 hrs by hoechst dye based confocal laser scanning microscopic analysis. Type of data set: ADME, cell-based. As to conditions: 4t1, 6 h.
The test system of data set [4] is 4T1. Kind of data set: Antiproliferative activity against mouse 4T1 cells assessed as inhibition of cell growth measured after 24 hrs by Cell Counting Kit-8 assay. The class given is functional, cell-based. The following applies: for IC50: 4T1, 24 h. In general terms: Tetrazolium assays rely on reduction of a dye to a coloured formazan, in cell work by metabolically active cells.

Data set [5] has as its system Panc02. The experiment in a line: Antiproliferative activity against Panc02 cells assessed as inhibition of cell growth measured after 24 hrs by Cell Counting Kit-8 assay. Type of data set: functional, cell-based. As to conditions: Mus musculus.
Data set [6] is described as follows: Prodrug conversion in Balb/c mouse implanted with mouse 4T1 cells assessed as carbon monoxide release in tumor by measuring red fluorescence at 10 mg/kg, iv incubated for 6 hrs followed by 1-Ac probe addition by hoechst dye based confocal laser scanning microscopic analysis. The class given is ADME, organism-based. The following applies: in vivo.
In data set [7] the test system is 4T1. Kind of data set: Antitumor activity against mouse 4T1 cells implanted in Balb/c mouse assessed as fold change in tumor volume at 10 mg/kg, iv administered on day 0,3, and 5 measured after 24 days (reference value: 25.5). The class given is functional. As to conditions: for fold change (FC): time 24 day; for Activity: time 24.0 day.
Data set [8] can be described thus: Toxicity in Balb/c mouse implanted with mouse 4T1 cells assessed as increase in survival rate at 10 mg/kg, iv administered on day 0,3, and 5 measured after 24 days (reference value: 27 days). Type of data set: organism-based. As to conditions: in vivo, 576 h, time 24 day.
Data set [9] can be described thus: Toxicity in Balb/c mouse implanted with mouse 4T1 cells assessed as change in body weight at 10 mg/kg, iv administered on day 0,3, and 5 measured after 24 days. The class given is organism-based. As to conditions: in vivo, 576 h, time 24 day.
Data set [10] can be described thus: Prodrug conversion in PBS buffer assessed as formation of 3',6'-dimethyl-[1,1':2',1''-terphenyl]-4'-carbonitrile by measuring half life at pH 7.4 at 25 uM measured after 24 hrs in presence of H2O2 by HPLC analysis. Type of data set: ADME. As to conditions: pH 7.4, 24 h.
Data set [11] in a line: Prodrug conversion in PBS buffer assessed as formation of oxidized intermediate by measuring half life at pH 7.4 at 25 uM measured after 24 hrs in presence of H2O2 by HPLC analysis. The class given is ADME. As to conditions: pH 7.4, 24 h.
For data set [12], the system named is Panc02. Kind of data set: Antiproliferative activity against Panc02 cells assessed as inhibition of cell growth upto 100 uM measured after 24 hrs by Cell Counting Kit-8 assay. Type of data set: functional, cell-based. The following applies: Mus musculus.
In data set [13] the test system is 4T1. The experiment in a line: Antiproliferative activity against mouse 4T1 cells assessed as inhibition of cell growth upto 100 uM measured after 24 hrs by Cell Counting Kit-8 assay. The class given is functional, cell-based.

The source made the active and inactive calls. No cut-off for these calls is given here.

With `CCCCCS[C@H]1C(C=O)[C@]2(C)C(=O)[C@]1(C)C(c1ccccc1)=C2c1ccccc1` (stereo partly specified), the t1/2 in [1] is 3.4 h; in data set [2], 81.6 h. In addition, the Drug metabolism entry in data set [3] and in data set [6] was “Metabolite_Detected” in each case. Moreover, the IC50 – broadly, the concentration needed to halve the response being measured – was 29.4 µM in data set [4] and 72.5 µM in data set [5] (Panc02, 24 h). Moreover, in data set [7], the “fold change (FC)” value turned out to be 9.4. Besides, the Survival in [8] amounted to 42 days. Besides, the Activity entry in data set [9] is “Non-Toxic”.
`CCCCCS[C@H]1C(C#N)[C@]2(C)C(=O)[C@]1(C)C(c1ccccc1)=C2c1ccccc1` (stereo partly specified): the figures for the t1/2 in data set [10] and in [11] were 12 h and 2 h, respectively. The Drug metabolism entry in data set [3] and in data set [6] was “Metabolite_Detected” each time. Further, the IC50 in data set [4] is > 100 µM. Also, the outcome in data set [12] was inactive. In addition, in [7], the “fold change (FC)” value is 16.5.
For the compound `Cc1cc(C=O)c(C)c(-c2ccccc2)c1-c1ccccc1`, the outcome in data set [4], in [5] and in [7] was inactive.
For the compound `Cc1ccc(S[C@H]2C(C#N)[C@]3(C)C(=O)[C@]2(C)C(c2ccccc2)=C3c2ccccc2)cc1` (stereo partly specified), the t1/2 came out at 12 h in data set [10] and 2 h in data set [11].
For `Cc1cc(C#N)c(C)c(-c2ccccc2)c1-c1ccccc1`, the result in [13], in [12] and in data set [7] was inactive.
For the compound `CCCCCS[C@H]1C(C(=O)OC)[C@]2(C)C(=O)[C@]1(C)C(c1ccccc1)=C2c1ccccc1` (stereo partly specified), the Drug metabolism entry in [3] and in data set [6] was “Metabolite_Notdetected” throughout. In addition, the outcome in data set [4], in data set [5] and in data set [7] was inactive.
For the compound `Cc1ccc(S[C@H]2C(C=O)[C@]3(C)C(=O)[C@]2(C)C(c2ccccc2)=C3c2ccccc2)cc1` (stereo partly specified), the t1/2 in data set [1] came out at 2.2 h; in data set [2] it was 3 h.
